Measured values as given in US20080312435A1, “Imine Compound” (TAISHO PHARMACEUTICAL CO., LTD., priority 2004, published 2008).
pIC50: −log10 of the molar value.

Key:
human CB2 receptor = target: T1, human CB2 receptor (Homo sapiens, UniProt P34972); test: Human CB2 receptor binding inhibition test ([3H]CP-55,940, CHO membrane fractions); conditions: [3H]CP-55,940, membrane fractions of CHO cells stably expressing human CB2 receptor, 25° C., 2 hours; read-out: CB2 IC50 (Inhibition of binding to human CB2 receptor)
T1 construct: expressed in transfected cells
T1 sequence (P34972 whole entry): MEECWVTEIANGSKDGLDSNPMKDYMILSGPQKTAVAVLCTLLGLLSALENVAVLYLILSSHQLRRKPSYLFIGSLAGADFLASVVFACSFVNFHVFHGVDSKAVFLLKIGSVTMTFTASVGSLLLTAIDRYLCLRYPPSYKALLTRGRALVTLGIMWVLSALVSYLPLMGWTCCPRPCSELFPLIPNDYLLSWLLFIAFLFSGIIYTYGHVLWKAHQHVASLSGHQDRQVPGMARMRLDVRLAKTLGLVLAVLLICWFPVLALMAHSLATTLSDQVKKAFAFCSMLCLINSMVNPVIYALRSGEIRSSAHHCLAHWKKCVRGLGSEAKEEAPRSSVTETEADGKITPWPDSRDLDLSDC
In short: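 Membranes from CHO-DHFR(−) cells stably expressing human CB2 used for [3H]CP-55,940 binding; filter-bound radioactivity counted by scintillation after washes with 0.1% BSA buffer. Nonspecific binding defined with 2.0 μM CP-55,940; IC50 for inhibition of specific binding.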

human CB1 receptor = target: T2, human CB1 receptor (Homo sapiens, UniProt P21554); test: Human CB1 receptor binding inhibition test; conditions: CHO-DHFR(−) cells stably expressing human CB1 receptor, same manner as Experimental Example 1
T2 construct: expressed in transfected cells
T2 sequence (P21554 whole entry): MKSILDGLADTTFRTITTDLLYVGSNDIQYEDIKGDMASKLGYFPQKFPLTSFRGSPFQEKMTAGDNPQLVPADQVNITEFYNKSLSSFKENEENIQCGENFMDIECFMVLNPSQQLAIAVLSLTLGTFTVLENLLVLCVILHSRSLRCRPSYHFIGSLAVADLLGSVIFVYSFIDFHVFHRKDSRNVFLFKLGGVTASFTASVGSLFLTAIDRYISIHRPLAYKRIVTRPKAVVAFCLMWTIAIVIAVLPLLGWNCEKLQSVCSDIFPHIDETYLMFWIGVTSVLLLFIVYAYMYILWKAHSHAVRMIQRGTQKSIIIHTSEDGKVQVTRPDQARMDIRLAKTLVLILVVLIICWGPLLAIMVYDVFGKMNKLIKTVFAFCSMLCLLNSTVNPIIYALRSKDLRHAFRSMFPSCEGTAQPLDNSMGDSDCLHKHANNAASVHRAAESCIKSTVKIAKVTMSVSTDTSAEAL
Experimental: Human CB1 Receptor Binding Inhibition Test
The CHO-DHFR(−) cells capable of stably expressing a CB1 receptor were prepared in the same manner as in Experimental Example 1. The binding test to the human CB1 receptor was performed to obtain 50% inhibitory concentration (IC50 value) of a test compound.

SMILES	pIC50 (human CB2 receptor)	pIC50 (human CB1 receptor)	melting point [°C]
CC(C)(C)c1c/c(=N\C(=O)c2cccc(C(F)(F)F)c2F)n(CC2CC2)s1 [compound 56]	9.10	6.53	85 to 87
COCCn1c(C)c(C)s/c1=N\C(=O)c1cccc(C(F)(F)F)c1F [compound 104]	8.77	6.49	182 to 183
CCOCCn1c(C)c(C)s/c1=N\C(=O)c1cccc(C(F)(F)F)c1F [compound 107]	9.30	7.74	147 to 148
CCOCCn1c(C)c(C(C)C)s/c1=N\C(=O)c1cccc(C(F)(F)F)c1F [compound 115]	9.30	7.60	96 to 97
Cc1ccccc1C(=O)/N=c1\sc(C(C)(C)C)c(C)n1CC1CC1 [compound 180]	9.00	6.40	
CCc1ccccc1C(=O)/N=c1\sc(C(C)(C)C)c(C)n1CC1CC1 [compound 181]	9.10	6.94	120 to 122
Cc1c(C(C)(C)C)s/c(=N\C(=O)c2ccccc2C(C)C)n1CC1CC1 [compound 182]	9.52	7.66	168 to 169
Cc1c(C(C)(C)C)s/c(=N\C(=O)c2ccccc2C(F)(F)F)n1CC1CC1 [compound 183]	9.30	6.86	90 to 91
Cc1c(C(C)(C)C)s/c(=N\C(=O)c2ccccc2Cl)n1CC1CC1 [compound 186]	8.77	6.57	
Cc1c(C(C)(C)C)s/c(=N\C(=O)c2ccccc2Br)n1CC1CC1 [compound 189]	8.82	6.67	
Cc1c(C(C)(C)C)s/c(=N\C(=O)c2ccccc2I)n1CC1CC1 [compound 191]	9.15	6.71	
Cc1c(C(C)(C)C)s/c(=N\C(=O)c2ccccc2N2CCOCC2)n1CC1CC1 [compound 206]	8.24	6.34	
Cc1cccc(C(=O)/N=c2\sc(C(C)(C)C)c(C)n2CC2CC2)c1C [compound 215]	8.96	7.21	97 to 98
Cc1c(C(C)(C)C)s/c(=N\C(=O)c2c(F)cccc2F)n1CC1CC1 [compound 223]	8.70	6.77	123 to 124
Cc1c(C(C)(C)C)s/c(=N\C(=O)c2cc(F)ccc2Br)n1CC1CC1 [compound 228]	9.30	6.64	92 to 94
Cc1c(C(C)(C)C)s/c(=N\C(=O)c2ccc(F)cc2Br)n1CC1CC1 [compound 229]	9.00	6.58	126 to 128
Cc1c(C(C)(C)C)s/c(=N\C(=O)c2cc(Cl)ccc2Cl)n1CC1CC1 [compound 232]	9.30	6.68	129 to 131
COc1cccc(C(=O)/N=c2\sc(C(C)(C)C)c(C)n2CC2CC2)c1OC [compound 235]	8.47	6.50	93 to 94
COc1ccc(C(=O)/N=c2\sc(C(C)(C)C)c(C)n2CC2CC2)c(OC)c1 [compound 236]	8.70	6.67	
CCOc1ccc(C(=O)/N=c2\sc(C(C)(C)C)c(C)n2CC2CC2)c(OCC)c1 [compound 237]	7.88	6.70	116 to 118
Cc1c(F)cccc1C(=O)/N=c1\sc(C(C)(C)C)c(C)n1CC1CC1 [compound 240]	8.47	6.77	94 to 96
Cc1c(Cl)cccc1C(=O)/N=c1\sc(C(C)(C)C)c(C)n1CC1CC1 [compound 243]	9.40	7.14	88 to 90
Cc1c(Br)cccc1C(=O)/N=c1\sc(C(C)(C)C)c(C)n1CC1CC1 [compound 245]	9.10	7.49	89 to 90
Cc1ccc(C(=O)/N=c2\sc(C(C)(C)C)c(C)n2CC2CC2)c(Br)c1 [compound 246]	9.10	6.50	82 to 84
Cc1c(C(C)(C)C)s/c(=N\C(=O)c2c(F)cccc2C(F)(F)F)n1CC1CC1 [compound 256]	8.96	6.99	128 to 130
Cc1c(C(C)(C)C)s/c(=N\C(=O)c2cccc(C(F)(F)F)c2Cl)n1CC1CC1 [compound 258]	9.22	7.72	93 to 94
COc1ccc(C(=O)/N=c2\sc(C(C)(C)C)c(C)n2CC2CC2)c(C)c1 [compound 261]	9.00	6.43	95 to 96

SMILES	pIC50 (human CB2 receptor)	pIC50 (human CB1 receptor)	melting point [°C]
COc1ccc(F)cc1C(=O)/N=c1\sc(C(C)(C)C)c(C)n1CC1CC1 [compound 262]	9.22	6.36	87 to 89
COc1cccc(F)c1C(=O)/N=c1\sc(C(C)(C)C)c(C)n1CC1CC1 [compound 263]	9.22	7.25	119 to 121
COc1cc(Cl)ccc1C(=O)/N=c1\sc(C(C)(C)C)c(C)n1CC1CC1 [compound 264]	9.00	6.74	163 to 165
COc1ccc(Cl)cc1C(=O)/N=c1\sc(C(C)(C)C)c(C)n1CC1CC1 [compound 265]	9.00	7.00	98 to 100
COc1ccc(C(=O)/N=c2\sc(C(C)(C)C)c(C)n2CC2CC2)c(OC)c1OC [compound 286]	7.90	6.36	88 to 89
Cc1c(C(C)(C)C)s/c(=N\C(=O)c2c(F)ccc(C(F)(F)F)c2F)n1CC1CC1 [compound 288]	9.70	7.31	109 to 111
Cc1c(C(C)(C)C)s/c(=N\C(=O)c2c(C(F)(F)F)ccc(Cl)c2F)n1CC1CC1 [compound 289]	9.30	6.87	182 to 183
Cc1ncccc1C(=O)/N=c1/sc(C(C)(C)C)c(C)n1CC1CC1 [compound 295]	7.91	6.30	
Cc1ccnc(C)c1C(=O)/N=c1\sc(C(C)(C)C)c(C)n1CC1CC1 [compound 299]	8.55	7.55	156 to 157
Cc1c(C(C)(C)C)s/c(=N\C(=O)c2cccnc2Cl)n1CC1CC1 [compound 301]	8.70	6.72	124 to 125
Cc1c(C(C)(C)C)s/c(=N\C(=O)c2ncccc2Br)n1CC1CC1 [compound 304]	8.64	6.43	141 to 142
Cc1c(C(C)(C)C)s/c(=N\C(=O)c2nc(Cl)ccc2Cl)n1CC1CC1 [compound 306]	9.30	7.17	143 to 145
Cc1c(C(C)(C)C)s/c(=N\C(=O)c2c(Cl)cncc2Cl)n1CC1CC1 [compound 308]	8.44	6.47	260 to 261
Cc1c(C(C)(C)C)s/c(=N\C(=O)c2cc(Cl)cnc2Cl)n1CC1CC1 [compound 309]	8.68	6.39	113 to 134
Cc1c(C(C)(C)C)s/c(=N\C(=O)c2ccnc3ccccc23)n1CC1CC1 [compound 323]	8.21	6.44	124 to 126
Cc1c(C(C)(C)C)s/c(=N\C(=O)c2nccc3ccccc23)n1CC1CC1 [compound 324]	8.70	6.45	
Cc1c(C(C)(C)C)s/c(=N\C(=O)c2c(Cl)ccc3cc(Cl)cnc23)n1CC1CC1 [compound 327]	8.44	7.26	172 to 174
Cc1c(C(C)(C)C)s/c(=N\C(=O)C2CCCCC2)n1CC1CC1 [compound 332]	8.48	7.01	141 to 142
Cc1c(C(=O)/N=c2\cc(C(C)(C)C)n(C)n2CC2CCC2)cccc1C(F)(F)F [compound 483]	8.08		133 to 134
Cn1c(C(C)(C)C)c/c(=N\C(=O)c2cccc(Cl)c2Cl)n1CC1CCCC1 [compound 484]	8.57		168 to 169
CCOCCn1/c(=N/C(=O)c2cccc(Cl)c2Cl)cc(C(C)(C)C)n1C [compound 486]	8.29	6.68	145 to 146
CCOCCn1/c(=N/C(=O)c2cccc(C)c2Br)cc(C(C)(C)C)n1C [compound 487]	8.00	6.61	166 to 167
CCOCCn1/c(=N/C(=O)c2cccc(C(F)(F)F)c2C)cc(C(C)(C)C)n1C [compound 489]	8.22		132 to 133
CC(C)OCCn1/c(=N/C(=O)c2cccc(Cl)c2Cl)cc(C(C)(C)C)n1C [compound 492]	8.30	6.58	
Cc1c(C(=O)/N=c2\cc(C(C)(C)C)n(C)n2CCOC(C)C)cccc1C(F)(F)F [compound 494]	8.68	6.55	
COc1ccc(C(F)(F)F)cc1C(=O)/N=c1\sc(C(C)(C)C)nn1CC1CC1 [compound 509]	8.23		82 to 83
CC(C)(C)c1nn(CC2CC2)/c(=N/C(=O)c2cccc(C(F)(F)F)c2F)o1 [compound 514]	8.59		108 to 110
